Laboratory results: patent US12545659B2, “IRAK degraders and uses thereof” (Kymera Therapeutics, Inc., priority 2019, dated 2026)

What follows are molecules tested against T1, IRAK4 (Homo sapiens, UniProt Q9NWZ3) (assay: IRAK4 MSD Degradation in OCI-LY10). Conditions: OCI-LY10 cells, 4 hrs incubation, read-out: IRAK4 degradation in OCI-LY10 at 4 hrs: DC50.
T1 construct: endogenous in cells; host or cells: OCI-LY10
T1 sequence (Q9NWZ3 1-460): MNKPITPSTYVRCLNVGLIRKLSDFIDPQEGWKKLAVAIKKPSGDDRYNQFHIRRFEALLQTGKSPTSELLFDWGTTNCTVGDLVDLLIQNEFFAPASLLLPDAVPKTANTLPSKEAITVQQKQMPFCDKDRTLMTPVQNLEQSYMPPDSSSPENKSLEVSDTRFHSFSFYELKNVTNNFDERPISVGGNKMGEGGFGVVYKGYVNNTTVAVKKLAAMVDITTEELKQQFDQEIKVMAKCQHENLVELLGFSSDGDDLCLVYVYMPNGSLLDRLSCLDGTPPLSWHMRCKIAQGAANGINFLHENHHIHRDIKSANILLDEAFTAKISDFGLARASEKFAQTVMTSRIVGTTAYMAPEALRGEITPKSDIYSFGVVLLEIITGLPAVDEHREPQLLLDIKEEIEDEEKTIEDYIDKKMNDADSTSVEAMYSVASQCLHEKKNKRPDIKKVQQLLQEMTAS
Format: cell-based
Method in brief: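 IRAK4 remaining in lysates was read by Meso Scale electrochemiluminescence sandwich (2H9 capture, Y279 plus SULFO-TAG detection). Cells were exposed 4 to 24 h at 37 °C to eight 3-fold dilutions from 1 to 10 μM final top; three-parameter logistic fit gave DC50.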

Compared with `Cn1c(=O)n(C2CCC(=O)NC2=O)c2cccc(N3CCN(C[C@H]4CC[C@H](n5cc6cc(NC(=O)c7cccc(C(F)(F)F)n7)c(C(F)F)cc6n5)CC4)CC3)c21` (stereo partly shown) [I-176], `Cn1c(=O)n(C2CCC(=O)NC2=O)c2cccc(N3CCN(C[C@H]4CC[C@H](n5cc6cc(NC(=O)c7cccc(C(C)(C)F)n7)c(C(F)F)cc6n5)CC4)CC3)c21` (stereo partly shown) [I-177] is higher in DC50: under 50 nM for the first, 50 to 100 nM for the second.

Compared with `CN(C[C@H]1CC[C@H](n2cc3cc(NC(=O)c4cccc(C(F)(F)F)n4)c(N4CCOCC4)cc3n2)CC1)C1CCN(c2cccc3c2n(C)c(=O)n3C2CCC(=O)NC2=O)CC1` (stereo partly shown) [I-178], `CN(C[C@H]1CC[C@H](n2cc3cc(NC(=O)c4cccc(C(F)(F)F)n4)c(N4CCOCC4)cc3n2)CC1)C1CCN(Cc2cccc3c2n(C)c(=O)n3C2CCC(=O)NC2=O)CC1` (stereo partly shown) [I-214] is higher in DC50: under 50 nM for the first, 50 to 100 nM for the second.

`CN(C[C@H]1CC[C@H](n2cc3cc(NC(=O)c4cccc(C(F)(F)F)n4)c(N4C[C@@H]5C[C@H]4CO5)cc3n2)CC1)C1CCN(c2cccc3c2n(C)c(=O)n3C2CCC(=O)NC2=O)CC1` (stereo partly shown) [I-179] and `COc1cc2nn([C@H]3CC[C@H](CN(C)C4CCN(c5cccc6c5n(C)c(=O)n6C5CCC(=O)NC5=O)CC4)CC3)cc2cc1NC(=O)c1ccc(F)c(C)n1` (stereo partly shown) [I-189] cannot be ordered by DC50: under 50 nM for the first, under 50 nM for the second.

First: Cn1c(=O)n(C2CCC(=O)NC2=O)c2cccc(C[C@H]3C[C@H](OC4CCN(C[C@H]5CC[C@H](n6cc7cc(NC(=O)c8cccc(C(F)(F)F)n8)c(C(C)(C)O)cc7n6)CC5)CC4)C3)c21 (stereo partly shown) [I-203]
Second: Cn1c(=O)n(C2CCC(=O)NC2=O)c2cccc(CCC3CC4(CCN(C[C@H]5CC[C@H](n6cc7cc(NC(=O)c8cccc(OC(F)(F)F)n8)c(C(C)(C)O)cc7n6)CC5)CC4)C3)c21 (stereo partly shown) [I-204]
The DC50 of the first is lower: under 50 nM for the first, 50 to 100 nM for the second.

`CN(CCCO[C@H]1C[C@H](Cc2cccc3c2n(C)c(=O)n3C2CCC(=O)NC2=O)C1)C[C@H]1CC[C@H](n2cc3cc(NC(=O)c4cccc(C(F)(F)F)n4)c(C(F)F)cc3n2)CC1` (stereo partly shown) [I-205] and `COc1cccc(C(=O)Nc2cc3cn([C@H]4CC[C@H](CN5CCC6(CC5)CC(CCc5cccc7c5n(C)c(=O)n7C5CCC(=O)NC5=O)C6)CC4)nc3cc2C(C)(C)O)n1` (stereo partly shown) [I-207] fall in the same range of DC50: 50 to 100 nM for the first, 50 to 100 nM for the second.

Work on `Cc1nc(C(=O)Nc2cc3cn([C@H]4CC[C@H](CN5CCC6(CC5)CC(CCc5cccc7c5n(C)c(=O)n7C5CCC(=O)NC5=O)C6)CC4)nc3cc2C(C)(C)O)ccc1F` (stereo partly shown) [I-206] yielded a DC50 of under 50 nM.

Same assay, conditions: OCI-LY10 cells, 24 hrs incubation, read-out: IRAK4 degradation in OCI-LY10 at 24 hrs: DC50

First: COc1cc2nc([C@H]3CC[C@H](CN4CC5(CC(CCNc6cccc7c6C(=O)N(C6CCC(=O)NC6=O)C7=O)C5)C4)CC3)oc2cc1NC(=O)c1cccc(C(F)(F)F)n1 (stereo partly shown) [I-180]
Second: COc1cc2nc([C@H]3CC[C@H](CN4CC5(CC(CCNc6cccc7c6C(=O)N(C6CCC(=O)NC6=O)C7=O)C5)C4)CC3)oc2cc1NC(=O)c1cccc(C(C)(F)F)n1 (stereo partly shown) [I-198]
The DC50 of the first is higher: 100 to 500 nM for the first, 50 to 100 nM for the second.

`CN[C@@H](C)C(=O)N[C@H](C(=O)N1CCC[C@H]1c1nc(C(=O)c2cccc(OCCCC3CC4(CCN(C[C@H]5CC[C@H](n6cc7cc(NC(=O)c8cccc(C(F)(F)F)n8)c(OC)cc7n6)CC5)CC4)C3)c2)cs1)C1CCCCC1` [I-181, N-[2-[4-[[2-[3-[3-[2-[(2S)-1-[(2S)-2-cyclohexyl-2-[[(2S)-2-(methylamino)propanoyl]amino]acetyl]pyrrolidin-2-yl]thiazole-4-carbonyl]phenoxy]propyl]-7-azaspiro[3.5]nonan-7-yl]methyl]cyclohexyl]-6-methoxy-indazol-5-yl]-6-(trifluoromethyl)pyridine-2-carboxamide] and `CN[C@@H](C)C(=O)N[C@H](C(=O)N1Cc2cc(OCCCC3CC4(CCN(C[C@H]5CC[C@H](n6cc7cc(NC(=O)c8cccc(C(F)(F)F)n8)c(OC)cc7n6)CC5)CC4)C3)ccc2C[C@H]1C(=O)N[C@@H]1CCCc2ccccc21)C(C)(C)C` [I-186, (3S)-2-[(2S)-3,3-Dimethyl-2-[[(2S)-2-(methylamino)propanoyl]amino]butanoyl]-7-[3-[7-[[4-[6-methoxy-5-[[6-(trifluoromethyl)pyridine-2-carbonyl]amino]indazol-2-yl]cyclohexyl]methyl]-7-azaspiro[3.5]nonan-2-yl]propoxy]-N-[(1R)-tetralin-1-yl]-3,4-dihydro-1H-isoquinoline-3-carboxamide] fall in the same range of DC50: 500 to 1000 nM for the first, 500 to 1000 nM for the second.

Compared with `CC(C)(O)c1cc2nc([C@H]3CC[C@H](CN4CCC5(CC4)CC(CCNc4cccc6c4C(=O)N(C4CCC(=O)NC4=O)C6=O)C5)CC3)oc2cc1NC(=O)c1cccc(C(F)(F)F)n1` (stereo partly shown) [I-182], `CC(C)(O)c1cc2nc([C@H]3CC[C@H](CN4CCC5(CC4)CC(Nc4cccc6c4C(=O)N(C4CCC(=O)NC4=O)C6=O)C5)CC3)oc2cc1NC(=O)c1cccc(C(F)(F)F)n1` (stereo partly shown) [I-183] is lower in DC50: 500 to 1000 nM for the first, 50 to 100 nM for the second.

First: CC(C)(O)c1cc2nc(N3CCC(CN4CCC5(CC4)CC(Nc4cccc6c4C(=O)N(C4CCC(=O)NC4=O)C6=O)C5)CC3)oc2cc1NC(=O)c1cccc(C(F)(F)F)n1 (stereo not shown) [I-184]
Second: CC(C)(O)c1cc2nc(N3CCC(CN4CCC5(CC4)CC(CCNc4cccc6c4C(=O)N(C4CCC(=O)NC4=O)C6=O)C5)CC3)oc2cc1NC(=O)c1cccc(C(F)(F)F)n1 (stereo not shown) [I-197]
The DC50 of the first is lower: 50 to 100 nM for the first, 500 to 1000 nM for the second.

`COc1cc2nn([C@H]3CC[C@H](CN(C)[C@H]4CC[C@]5(CC4)C[C@@H](CNc4cccc6c4C(=O)N(C4CCC(=O)NC4=O)C6=O)C5)CC3)cc2cc1NC(=O)c1cccc(C(F)(F)F)n1` (stereo partly shown) [I-185] and `COc1cc2nn([C@H]3CC[C@H](CN(C)[C@H]4CC[C@H](CNc5cccc6c5C(=O)N(C5CCC(=O)NC5=O)C6=O)CC4)CC3)cc2cc1NC(=O)c1cccc(C(F)(F)F)n1` (stereo partly shown) [I-210] fall in the same range of DC50: 50 to 100 nM for the first, 50 to 100 nM for the second.

First: CC(C)(O)c1cc2nn([C@H]3CC[C@H](CN4CCC5(CC4)CC(CNc4cccc6c4C(=O)N(C4CCC(=O)NC4=O)C6=O)C5)CC3)cc2cc1NC(=O)c1cccc(S(F)(F)(F)(F)F)n1 (stereo partly shown) [I-187]
Second: COc1cc2nn([C@H]3CC[C@H](CN4CCC5(CC4)CC(CNc4cccc6c4C(=O)N(C4CCC(=O)NC4=O)C6=O)C5)CC3)cc2cc1NC(=O)c1cccc(C(F)F)n1 (stereo partly shown) [I-209]
The DC50 of the first is higher: 50 to 100 nM for the first, under 50 nM for the second.

`COc1c(NC(=O)c2cccc(C(C)(F)F)n2)cc2cn([C@H]3CC[C@H](CN4CC5(CC(CCNc6cccc7c6C(=O)N(C6CCC(=O)NC6=O)C7=O)C5)C4)CC3)nc2c1C` (stereo partly shown) [I-188] and `CC(F)(F)c1cccc(C(=O)Nc2cc3cn([C@H]4CC[C@H](CN5CC6(CC(CCNc7cccc8c7C(=O)N(C7CCC(=O)NC7=O)C8=O)C6)C5)CC4)nc3cc2OC2CC2)n1` (stereo partly shown) [I-200] fall in the same range of DC50: 50 to 100 nM for the first, 50 to 100 nM for the second.

`C[C@]1(CN2CCC3(CC2)CC(CCNc2cccc4c2C(=O)N(C2CCC(=O)NC2=O)C4=O)C3)Cc2cc(NC(=O)c3cnn4cccnc34)c(N3CCOCC3)cc2O1` (stereo partly drawn) [I-196, N-[(2R)-2-[[2-[2-[[2-(2,6-dioxo-3-piperidyl)-1,3-dioxo-isoindolin-4-yl]amino]ethyl]-7-azaspiro[3.5]nonan-7-yl]methyl]-2-methyl-6-morpholino-3H-benzofuran-5-yl]pyrazolo[1,5-a]pyrimidine-3-carboxamide] and `O=C1CCC(N2C(=O)c3cccc(NCCC4CC5(CCN(C[C@H]6CC[C@H](c7nc8cc(N9CCOCC9)c(NC(=O)c9cccc(C(F)(F)F)n9)cc8o7)CC6)CC5)C4)c3C2=O)C(=O)N1` (stereo partly shown) [I-199] fall in the same range of DC50: 500 to 1000 nM for the first, 500 to 1000 nM for the second.

First: CC(C)Oc1cc2nn([C@H]3CC[C@H](CN4CCC5(CC4)CC(Nc4cccc6c4C(=O)N(C4CCC(=O)NC4=O)C6=O)C5)CC3)cc2cc1NC(=O)c1cccc(C(F)(F)F)n1 (stereo partly shown) [I-202]
Second: CCOc1cc2nn([C@H]3CC[C@H](CN4CCC5(CC4)CC(CCNc4cccc6c4C(=O)N(C4CCC(=O)NC4=O)C6=O)C5)CC3)cc2cc1NC(=O)c1cccc(C(F)(F)F)n1 (stereo partly shown) [I-212]
The DC50 of the first is lower: 50 to 100 nM for the first, 100 to 500 nM for the second.

First: COc1cc2nn([C@H]3CC[C@H](CN4CCC5(CC4)CC(CCNc4cccc6c4C(=O)N(C4CCC(=O)NC4=O)C6=O)C5)CC3)cc2cc1NC(=O)c1nc(C(F)(F)F)cs1 (stereo partly shown) [I-208]
Second: COc1cc2nn([C@H]3CC[C@H](CN4CCC5(CC4)CC(CNc4ccc6c(c4)C(=O)N(C4CCC(=O)NC4=O)C6=O)C5)CC3)cc2cc1NC(=O)c1cccc(C(F)(F)F)n1 (stereo partly shown) [I-222]
The DC50 of the first is higher: 100 to 500 nM for the first, 50 to 100 nM for the second.

First: COc1cc2nn([C@H]3CC[C@H](CN(C)[C@H]4CC[C@H](Nc5cccc6c5C(=O)N(C5CCC(=O)NC5=O)C6=O)CC4)CC3)cc2cc1NC(=O)c1cccc(C)n1 (stereo partly shown) [I-211]
Second: COc1cc2nn([C@H]3CC[C@H](CN(C)CCCO[C@H]4C[C@@H](Nc5cccc6c5C(=O)N(C5CCC(=O)NC5=O)C6=O)C4)CC3)cc2cc1NC(=O)c1cccc(C(F)(F)F)n1 (stereo partly shown) [I-213]
The DC50 of the first is lower: under 50 nM for the first, 100 to 500 nM for the second.

`COc1cc2nn([C@H]3CC[C@H](CN4CCC5(CC4)CC(CNc4cccc6c4C(=O)N(C4CCC(=O)NC4=O)C6=O)C5)CC3)cc2cc1NC(=O)c1cccc(-c2cnn(C)c2)n1` (stereo partly shown) [I-218] and `COc1cc2nn([C@H]3CC[C@H](CN(C)C4CCC5(CC4)CC(CNc4cccc6c4C(=O)N(C4CCC(=O)NC4=O)C6=O)C5)CC3)cc2cc1NC(=O)c1cccc(-c2cnn(C)c2)n1` (stereo partly shown) [I-219] fall in the same range of DC50: 50 to 100 nM for the first, 50 to 100 nM for the second.

Compared with `COc1cc2nn([C@H]3CC[C@H](CN4CCC5(CC4)CCN(c4cccc6c4C(=O)N(C4CCC(=O)NC4=O)C6=O)CC5)CC3)cc2cc1NC(=O)c1cccc(C(F)(F)F)n1` (stereo partly shown) [I-220], `CN(CCCO[C@H]1C[C@H](Nc2cccc3c2C(=O)N(C2CCC(=O)NC2=O)C3=O)C1)C[C@H]1CC[C@H](n2cc3cc(NC(=O)c4coc(-c5ccnc(NCC6CC6)c5)n4)c(C(C)(C)O)cc3n2)CC1` (stereo partly shown) [I-221] is lower in DC50: 50 to 100 nM for the first, under 50 nM for the second.
